Data reported in paper PMC10135567, “New Indole-3-Propionic Acid and 5-Methoxy-Indole Carboxylic Acid Derived Hydrazone Hybrids as Multifunctional Neuroprotectors” (Antioxidants, 2023).
“Also recorded” adds a separate entry of the source.

Key:
[1] = test system: isolated rat-brain synaptosomes; test: Level of reduced glutathione (GSH) in isolated synaptosomes, substances administered alone; conditions: 100 µM
Procedure: (§1) Preparation of the synaptosomes was carried out by multiple centrifugations using the Percoll gradient. Homogenization of the brains was performed in 10 volumes of cold buffer 1, which contained 5 mM HEPES and 0.32 M sucrose (pH = 7.4), followed by centrifugation at different speeds. For preparation of the gradient, the synaptosomes were isolated by Percoll reagent. Synaptosomes were resuspended and incubated in buffer 2, which contained 290 mM NaCl, 0.95 mM MgCl2x6H2O, 10 mM KCl, 2.4 mM CaCl2xH2O, 2.1 mM NaH2PO4, 44 mM HEPES, and 13 mM D-glucose. Incubations were performed in a 5% CO2 + 95% O2 atmosphere. The method of Lowry et al., using bovine serum albumin as a standard content, was applied for determination of synaptosomal protein [51].
After the treatment with the tested compounds, the glutathione levels of the synaptosomes were determined with an Ellman reagent (DTNB). The GSH levels were evaluated based on the synaptosomal sediment, precipitated with 5% TCA, and centrifuged for 10 min at 4000× g. GSH levels in the supernatant were measured spectrophotometrically at 412 nm by a Spectro UV-vis split spectrophotometer (LaboMed. Inc., Los Angelis, California, USA). […]

[2] = test system: isolated rat-brain synaptosomes; test: Synaptosomal viability (MTT), substances administered alone; conditions: 100 µM
Procedure: as §1
Synaptosomal viability was monitored based on a (3-(4,5)-dimethylthiazol-2-yl)-2,5-diphenyl tetrazolium bromide) assay. After incubation with the compounds, synaptosomes were treated with 0.5 mg/mL solution of (3-(4,5)-dimethylthiazol-2-yl)-2,5-diphenyl tetrazolium bromide) for 10 min at […]. Then, the synaptosomes were centrifuged twice at 15,000× g for 1 min. The resulting formazan crystals were dissolved in DMSO (dimethyl sulfoxide), and the extinction was determined by spectrophotometric measurements at 580–660 nm. […]

[3] = test system: zonula occludens-1 (ZO-1), tight junctions between bEnd3 cells; test: Immunofluorescence of ZO-1 (tight junctions) in bEnd3 cells; type: cell-based, mouse; conditions: 90 min
Procedure: Immunofluorescence of zonula occludens-1 (ZO-1) was performed to determine the in vitro effect of the compounds on tight junctions (TJs) between bEnd3 cells. The experiment was conducted simultaneously with the permeability assay. Briefly, cells were seeded on cover slides in 24-well plates at a concentration of 3.5 × 10^4 cells/well and incubated for 3–4 d at 37 °C and 5% CO2 in a humidified atmosphere, until they reached 100% confluence. The cells were then treated with 10 and 50 µM concentrations of the compounds for 90 min. After the allotted treatment time, the cells were fixed with ice-cold acetone at −20 °C for 10 min; blocked with 1% bovine serum albumin (BSA, cat. no. 9048-46-8, Acros Organics, Thermo Fischer Scientific, Waltham, MA, USA) in PBS, containing 0.1% Tween® 20 (cat. no. P1379, Sigma-Aldrich Co. LLC, St. Louis, MO, USA); and labeled with anti-ZO-1 (rabbit polyclonal antibody, 1:500, cat. no. ab96587, Abcam, Cambridge, UK) at 4 °C overnight. The slides were then incubated with a secondary donkey anti-rabbit Alexa Fluor™ 555 antibody (1:1000, cat. no. 4413S, Molecular Probes, Thermo Fischer Scientific, Waltham, MA, USA) for 1 h at room temperature (RT) in the dark. […] Fluorescence microscopy was performed on a spinning disk confocal microscope system (Andor Dragonfly 505, Oxford Instruments, Abingdon, UK) with 60 × oil NA 1.4 objective, with em./ex. = 561/617 nm for ZO-1 and 405/445 nm for DAPI. The obtained data were analyzed with Fiji and compiled via the FigureJ plugin [46].
To further explore the neuroprotective effect of the compounds, we tested their ability to influence the BBB and its permeability, utilizing a static BBB model with brain microvascular endothelial cell line bEnd3 [36], as it would be essential for the compounds to pass the BBB and protect the neuronal cells. […] Here, we determined any changes in the permeability of the BBB by imitating an endothelial barrier via a static BBB model of bEnd3 cells (Figure 11a,c,e). […]

[4] = Stability by UV-vis measurements at different pH; type: physicochemical; conditions: 50 µM, pH 2, 4.5, 7.4 and 8.4, after 1, 2, 3 and 24 h
Procedure: The stability of the compounds was also considered a potential issue. Therefore, selected compounds (3a, 3d, 5d, and 5e at a concentration of 50 µM) were studied by UV-vis measurements under different pH conditions, including pH 2, 4.5, 7.4, and 8.4, to represent different physiological (gastric, intestinal, etc.) conditions.

| Compound | reduction of GSH level vs. non-treated synaptosomes [1] | stability (UV-vis spectra over time) [4] | effect on tight junctions (ZO-1 distribution) ([3]; 10 µM) | other results |
| --- | --- | --- | --- | --- |
| COc1cc(C=NNC(=O)CCc2c[nH]c3ccccc23)cc(OC)c1O [Compound 3f, N′-(4-Hydroxy-3,5-dimethoxybenzylidene)-3-(1H-indol-3-yl)propanehydrazide] | 40% | – | – | – |
| COc1ccc2[nH]cc(CCNC(C)=O)c2c1 [Melatonin] | did not decrease | – | – | reduction of synaptosomal viability (SV) vs. non-treated synaptosomes [2]: 20% |
| COc1ccc(C=NNC(=O)c2cc3cc(OC)ccc3[nH]2)c(O)c1 [Compound 5e, N′-(2-Hydroxy-4-methoxybenzylidene)-5-methoxy-1H-indole-2-carbohydrazide] | – | stable over time; also recorded: very good stability | – | effect on tight junctions (ZO-1 distribution) ([3]; 10 and 50 µM): appears to disrupt TJs |
| COc1cc(C=NNC(=O)CCc2c[nH]c3ccccc23)ccc1O [Compound 3d, N′-(4-Hydroxy-3-methoxybenzylidene)-3-(1H-indol-3-yl)propanehydrazide] | – | stable over time | – | – |
| COc1ccc2[nH]c(C(=O)NN=Cc3cccc(O)c3O)cc2c1 [Compound 5a, N′-(2,3-Dihydroxybenzylidene)-5-methoxy-1H-indole-2-carbohydrazide] | – | – | without affecting the TJs | – |
| COc1ccc2[nH]c(C(=O)NN=Cc3ccc(O)c(O)c3)cc2c1 [Compound 5b, N′-(3,4-Dihydroxybenzylidene)-5-methoxy-1H-indole-2-carbohydrazide] | – | – | without affecting the TJs | – |
